Key:
[1] = system: Alzheimer's disease (AD) in patients over the age of 60; experiment: Health care database study at three hospitals: frequency of AD by medication (ICD-9-CM codes); assay type: in vivo, human; conditions: for Prevalence Of AD/1000 Hines / Prevalence Of AD/1000 Loyola / Prevalence Of AD/1000 Phoenix / Prevalence Of AD/1000 Combined: patients 60 years or over; for Prevalence Of AD/1000 Hines: Hines Veterans Authority Medical Center; for Prevalence Of AD/1000 Loyola: Loyola Medical Center; for Prevalence Of AD/1000 Phoenix: Phoenix Veterans Authority Medical Center; for Prevalence Of AD/1000 Combined: data from the three sites combined; for effect on prevalence / risk of AD (in words): patients over the age of 60, compared with total patient population
Source text: To perform the study, relational databases at three different hospitals (Loyola Medical Center (“Loyola”), Hines Veterans Authority Medical Center (“Hines”), and Phoenix Veterans Authority Medical Center (“Phoenix”)) were searched to obtain aggregate data about the frequency of AD. Each database included clinical information that facilitated identification of potential relationships between specific items. […] Patient privacy was protected by using only aggregate patient data.
Each database was sorted to exclude any subjects under the age of 60 and any entries that contained patients' names but no medical information pertinent to the study. This yielded a total patient sample size for the three databases of 63,296 patients.
The frequency of AD for each medication was then determined using ICD-9-CM codes.
Alzheimer's disease was identified under the ICD-9-CM code of 331.0, but because other codes also apply to AD, the codes 331.2, 290.0, 290.10-13, 290.20 and 290.3 were also included as AD cases based on interviews with the physicians at each center who diagnosed or oversaw the diagnosis of patients with AD and on their coding practices for AD. The diagnosis of AD was made according to the criteria of the National Institute of Neurological and Communicative Disorders and Stroke (NINCDS) and the Alzheimer's Disease and Related Disorders Association (ADRDA) Work Group (McKhann et al., “Clinical Diagnosis of Alzheimer's Disease: Report of the NINCDS-ADRDA Work Group under the Auspices of Department of Health and Human Services Task Force on Alzheimer's Disease,” Neurology, 34:939-944 (1984).) Each AD patient had received either a CT scan or MRI to exclude other diagnoses, and had been screened for other metabolic, toxic, or affective disorders that may produce dementia.
Statistics were determined by comparisons of proportions using chi square analyses. All statistics listed P values and 95% confidence intervals.

[2] = system: Alzheimer's disease (AD); conditions: comparison figures, no source given; cited from earlier work

| Compound | Prevalence Of AD/1000 Hines [1] | Prevalence Of AD/1000 Loyola [1] | Prevalence Of AD/1000 Phoenix [1] | Prevalence Of AD/1000 Combined [1] | degree of reduction (of AD risk), other putative AD therapeutics [2] | effect on prevalence / risk of AD (in words) [1] |
| --- | --- | --- | --- | --- | --- | --- |
| CC[C@H](C)C(=O)O[C@H]1C[C@H](O)C=C2C=C[C@H](C)[C@H](CC[C@@H](O)C[C@@H](O)CC(=O)O)[C@H]21 [Pravastatin, 1-naphthalene-hepatnoic acid, 1,2,6,7,8,8a-hexahydro-β,δ,6-trihydroxy-2-methyl-8-(2-methyl-1-oxobutoxy)] | 1.1 /1000 | 0 /1000 | 8.3 /1000 | 4.3 /1000 | – | – |
| estrogen | – | – | – | – | 25-31% | – |
| Cc1c(C)c2c(c(C)c1O)CC[C@@](C)(CCC[C@H](C)CCC[C@H](C)CCCC(C)C)O2 [alpha-tocopherol] | – | – | – | – | 52% | – |
| NS(=O)(=O)c1cc(C(=O)O)c(NCc2ccco2)cc1Cl [Furosemide, furosemide] | 9.0 /1000 | 16.7 /1000 | 14.1 /1000 | 8.9 /1000 | – | did not show any significant reduction |
| COCCc1ccc(OCC(O)CNC(C)C)cc1 (stereo not shown) [Metoprolol, metoprolol] | 4.4 /1000 | 15.3 /1000 | 12.4 /1000 | 12.1 /1000 | – | higher than that of the total patient cohort |
| CCC(C)(C)C(=O)O[C@H]1C[C@@H](C)C=C2C=C[C@H](C)[C@H](CC[C@@H]3C[C@@H](O)CC(=O)O3)[C@H]21 [Simvastatin, simvastatin] | – | 8.1 /1000 | 11.2 /1000 | 11.2 /1000 | – | – |
| CC(C)NCC(O)COc1cccc2ccccc12 (stereo not shown) [Propanolol, propanolol] | 3.9 /1000 | 42.4 /1000 | 20.7 /1000 | 17.5 /1000 | – | higher than that of the total patient cohort |
| CC(C)NCC(O)COc1ccc(CC(N)=O)cc1 (stereo not shown) [Atenolol, atenolol] | 7.1 /1000 | 19.2 /1000 | 19.0 /1000 | 14.8 /1000 | – | higher than that of the total patient cohort |
| C[C@H](CS)C(=O)N1CCC[C@H]1C(=O)O [Captopril, captopril] | 8.4 /1000 | 13.6 /1000 | 10.6 /1000 | 10.6 /1000 | – | did not show any significant reduction |
